Assay: hydrogen sulfide scavenging in sour Isopar M solvent
Conditions: sour Isopar M solvent with 4000 ppm H2S, scavenger dose per sample in the 5th table
Protocol: Further testing was performed to compare the hydrogen sulfide scavenging properties of an exemplary embodiment of the multipurpose process chemical compared to conventional scavengers.
A sour Isopar™ M solvent was obtained with 4000 ppm hydrogen sulfide (H2S). Samples were obtained by mixing the following with the sour Isopar™ M solvent:
The control and Samples V-A through V-F were stirred for twenty-four (24) hours at ambient temperature (˜71° F.). […] The table below summarizes the hydrogen sulfide scavenging observed for each sample: […]

## CC1COC(=O)O1 (centres unmarked) [Sample V-C, propylene carbonate]
24 hours, ambient temperature
  % H2S reduction: 0%
Stirred 24 hours at ambient temperature (~71 F), control 3,500 ppm
  H2S at 24 hours (ppm): 3,500 ppm
